Paper PMC3033209 (Journal of applied microbiology, 2009)

Molecular target: T1, β-glucosidase from L. brevis SK3 (Levilactobacillus brevis, UniProt Q03P52)
T1 sequence (Q03P52 1-751): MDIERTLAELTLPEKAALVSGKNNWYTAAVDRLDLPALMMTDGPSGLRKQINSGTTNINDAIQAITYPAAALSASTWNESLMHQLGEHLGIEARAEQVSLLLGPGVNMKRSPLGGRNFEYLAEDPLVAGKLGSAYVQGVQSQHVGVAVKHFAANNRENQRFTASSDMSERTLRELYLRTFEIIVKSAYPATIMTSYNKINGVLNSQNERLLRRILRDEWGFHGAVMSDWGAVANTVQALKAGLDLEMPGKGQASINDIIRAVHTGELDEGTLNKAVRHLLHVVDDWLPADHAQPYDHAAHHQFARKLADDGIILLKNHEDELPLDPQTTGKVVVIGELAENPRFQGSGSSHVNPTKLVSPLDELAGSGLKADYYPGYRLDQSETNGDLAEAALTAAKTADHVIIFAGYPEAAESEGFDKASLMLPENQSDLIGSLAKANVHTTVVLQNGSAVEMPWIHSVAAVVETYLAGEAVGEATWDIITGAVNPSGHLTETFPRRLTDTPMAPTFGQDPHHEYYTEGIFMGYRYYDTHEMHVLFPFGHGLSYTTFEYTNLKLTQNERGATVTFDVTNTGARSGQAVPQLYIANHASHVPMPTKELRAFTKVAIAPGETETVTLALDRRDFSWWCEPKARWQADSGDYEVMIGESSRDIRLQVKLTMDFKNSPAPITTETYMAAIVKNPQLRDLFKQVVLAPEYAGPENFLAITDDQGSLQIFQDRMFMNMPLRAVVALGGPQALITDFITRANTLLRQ
Assay: standard glucosidase assay, p-nitrophenol at […] nm after stop
Format: biochemical
Conditions: inhibitor, 10 mM pNPβGlc, pH 5.5, 37 °C, 10 min

Relative activity (%) (200000 µM) | Relative activity (%) (10000 µM) | Structure (SMILES)
17% |  | O=C(O)[C@H](O)[C@@H](O)[C@H](O)[C@H](O)CO [Gluconic acid]
 | 14% | O=C1O[C@H](CO)[C@@H](O)[C@H](O)[C@H]1O [Glucono-δ-lactone]
59% |  | OC[C@H]1OC(O)[C@H](O)[C@@H](O)[C@@H]1O (stereo partly drawn) [Glucose]
